{"source": "patent US20250057876A1", "about": "“METHODS FOR TREATING AND/OR PREVENTING LYMPHANGIOGENESIS-ASSOCIATED DISEASES BY USING GOLD NANOCLUSTERS” (MacKay Memorial Hospital, priority 2023, published 2025)", "tested_on": "ISO-induced cardiac injured mice", "assay": "Echocardiography in isoproterenol (ISO)-induced heart failure model", "format": "in vivo, mouse", "details": "co-treatment of MAZ-51 with FANCs in ISO-treated mice, vs ISO+FANC group", "description": "Male 7-weeks-old C57BL/6 mice were purchased from BioLasco Inc. (Yilan, Taiwan), The mice were treated with FANCs (20 μM; about 0.57 mg/kg body weight) via an abdominal implant using osmotic pump system on Day 0. Then, the mice were subcutaneously treated with ISO (150 mg/kg) on Day 14. After 14 days from ISO injection, echocardiography was performed on Day 28 to measure the cardiac function of the mice. The animals were then sacrificed, and their hearts were harvested for histological and pathological examination.\nThe experimental echocardiography for the mice was conducted after the mice were anesthetized with isoflurane (Abbott Laboratories Ltd., England; delivered to achieve a concentration of 1-2% in a combination of oxygen and nitrous oxide mixed at a ratio of 50:50 with air). […] Parameters including tissue Doppler used to determine contractile velocity (TDI-S′), deformation-based circumferential systolic strain measure, and quantitative indices of tissue structure integrated backscatter intensity from dynamic myocardial motions, were used to assess systolic myocardial performance using ECG-gated off-line analysis on the EchoPac Workstation.", "data": [{"smiles": "CN(C)c1ccc(/C=C2/C(=O)Nc3ccccc32)c2ccccc12", "note": "[MAZ-51, (3E)-3-[[4-(dimethylamino)naphthalen-1-yl]methylidene]-JH-inden-2-one]", "values": [{"measurement": "effect on FANCs improved cardiac function", "value": "abolished"}]}]}
